Laboratory results published in patent US20250213547A1, “METHODS OF TREATING NEUROLOGICAL DISEASES” (priority 2022, published 2025).
“And” between values parts separate entries of the source, which are not always exact repeats. Equal values may be shown once.

Columns and labels:
[1] = tested on: seizure frequency in developmental and/or epileptic encephalopathy patients; assay: Adult DEE patients: antiseizure efficacy (seizure frequency); type: in vivo, human
Text: The third clinical trial was a randomized, double-blind, placebo controlled study. […] After the completion of Part A, 16 patients continued in Part B with open-label treatment for 60 additional days. Patients were included in the trial if they were 18-65 years of age with an established diagnosis of DEE, such as Lennox-Gastaut syndrome, Dravet syndrome, or tuberous sclerosis complex. For enrollment, patients were required to have had at least two bilateral motor seizures per month in the three months prior. In addition, during the 4-week baseline period prior to dosing, patients were required to have incurred at least one bilateral motor seizure. Exclusion criteria included abnormal ECG, degenerative eye disease, or admission to emergency care for treatment of status epilepticus that required mechanical ventilation.
Only patients having at least one bilateral seizure during the baseline study were eligible to continue. […] The range of seizure types included tonic-clonic, drop seizures, tonic, atonic, bilateral clonic, myoclonic-atonic, myotonic-tonic-clonic, and focal seizures. Aside from seizure history, subjects were also enrolled based on an establish diagnosis of DEE, such as Lennox-Gastaut syndrome (LGS) and Dravet syndrome (DS), tuberous sclerosis complex, and a history of special education or an overall intellectual quotient of <70. […] Subjects could continue taking 1-4 anti-seizure medicines (ASM), with the exception of stiripentol, during the study.
FIG. 9A depicts the study paradigm and FIG. 9B depicts the patient disposition. […] Part B consisted of an open-label 85-day extension study to ensure long-term safety and tolerability. The first 20 days of part A consisted of a tolerability titration phase, and thereafter a maintenance phase lasting from days 21-30.

plasma 24HC [2] = assay: Adult DEE patients: pharmacodynamics, plasma 24HC; type: in vivo, human; details: for mean plasma 24HC decrease from baseline: Part A
Protocol: Blood sample collection and analyses for measuring 24HC was performed as previously described in example 5.

clinical = details: human, in vivo, 300 mg
Text: This study included nine patients in a three-sequence regimen altering fed state and formulation.
Aside from differences in a few selected time points, PK data collection procedures and analyses are similar to example 2.

plasma 24HC [3] = assay: Healthy Japanese subjects, Part 2: plasma 24HC pharmacodynamics; type: in vivo, human
Protocol: TAK-935 or placebo was administered to the 9 subjects at the dose of 100 mg BID from Day 1 to Day 7, then 200 mg BID from Day 8 to Day 14, and finally 300 mg BID from Day 15 to Day 21, and safety, PK and PD were investigated. The planned dose levels of TAK-935 to be evaluated are outlined in Table 40a.
(§1) Blood samples for PD analysis of plasma 24HC level were collected into blood collection tubes (vacutainer) containing the anticoagulant K2EDTA.
(§2) The PD assessments described below were performed at the time points stipulated in the schedule of procedures. The additional PD endpoints included the following PD parameters for plasma 24HC: […]

plasma 24HC [4] = assay: Healthy Japanese subjects, Part 1: plasma 24HC pharmacodynamics; type: in vivo, human; details: for AUEC24 of plasma 24HC / AUECt of plasma 24HC (time 0 to last sampling time point) / E24 of plasma 24HC (observed effect at 24 hours) / Emax of plasma 24HC (maximum drug-induced effect): mean (% CV); for Emax: Homo sapiens, read-out: % change from Baseline in Emax of plasma 24HC; for Emax / % change from Baseline in AUEC24 of plasma 24HC / % change from Baseline in E24 of plasma 24HC: mean; for Time to Emax of plasma 24HC: median (min-max)
Protocol: On Day 1 of each dose level, a single dose of TAK-935 or placebo was administered, and safety, PK and PD were evaluated.
as §1, §2

[5] = Day 21 after 100 mg BID, 200 mg BID, and 300 mg BID, mean
[6] = multiple doses 100 mg BID, 200 mg BID, and 300 mg BID (Day 21), mean

SMILES: O=C(c1cccnc1-c1ccncc1)N1CCC(O)(Cc2ccccc2)CC1 [soticlestat]
- change in seizure frequency from baseline, individual patients ([1]; Part A, three patients treated concurrently with perampanel): +107% and +465% and +4%
- median percent change from baseline seizure frequency ([1]; Part B maintenance, days 42-85 (n=16)): −36.38%
- median percent change from baseline seizure frequency ([1]; Part B, excluding patients taking perampanel (n=13)): −44.66%
- change in seizure frequency from baseline, individual patients ([1]; Part B, three patients taking perampanel): +297% and +398% and +175%
- median seizure frequency ([1]; all completers except those taking perampanel): 25.60 per 28 days
- reduction in seizure frequency in two patients ([1]; last 4 weeks/month of treatment): 100%
- median percent change from baseline seizure frequency ([1]; last 28 days of Part B (post-hoc)): −60.74%
- mean plasma 24HC decrease from baseline (plasma 24HC [2]; day 11): 69.76%
- mean plasma 24HC decrease from baseline (plasma 24HC [2]; day 21): 76.88%
- plasma 24HC mean percent change from baseline (plasma 24HC [2]; day 11): −69.76%
- plasma 24HC mean percent change from baseline (plasma 24HC [2]; day 21): −76.88%
- plasma 24HC mean percent change from baseline (plasma 24HC [2]; day 85): −80.97%
- mean percent decrease of plasma 24HC (plasma 24HC [2]; end of Part B (day 85)): 80.97%
- AUC∞ lower, tablet fed than fasting (clinical): 10.6%
- Tmax (clinical): 31.8 min
- mean Cmax decrease, tablet fed compared to fasted (clinical): 59.7%
- AUC∞ lower with tablet compared with oral solution (clinical; po): 15.8%
- Cmax lower with tablet compared with oral solution (clinical; po): 36.9%
- Tmax (clinical; po): 21 min
- maximum mean decrease of trough plasma 24HC from time-matched baseline (plasma 24HC [3]; Day 21, up-titration to 300 mg BID): about 88%
- AUEC24 of plasma 24HC (plasma 24HC [3]; [5]): 124.2 ng·h/mL
- AVECτ of plasma 24HC (AUEC during a dosing interval) (plasma 24HC [3]; [5]): 61.28 ng·h/mL
- E12 of plasma 24HC (observed effect at 12 hours) (plasma 24HC [3]; [5]): 5.443 ng/mL
- E24 of plasma 24HC (observed effect at 24 hours) (plasma 24HC [3]; [5]): 5.013 ng/mL
- Emax of plasma 24HC (plasma 24HC [3]; [5]): 4.640 ng/mL
- Time to Emax of plasma 24HC (plasma 24HC [3]; Day 21 after 100 mg BID, 200 mg BID, and 300 mg BID, median): 6.000 h
- Emax (plasma 24HC [3]; Homo sapiens, 504 h, multiple doses 100 mg BID, 200 mg BID, and 300 mg BID (Day 21), mean, read-out: % change from Baseline in Emax of plasma 24HC): -86.7%
- % change from Baseline in AUEC24 of plasma 24HC (plasma 24HC [3]; [6]): −86.75%
- % change from Baseline in AUECτ of plasma 24HC (plasma 24HC [3]; [6]): −86.62%
- % change from Baseline in E12 of plasma 24HC (plasma 24HC [3]; [6]): −85.83%
- % change from Baseline in E24 of plasma 24HC (plasma 24HC [3]; [6]): −87.67%
- maximum decrease in percent change from Baseline of mean AUEC24 (plasma 24HC [4]; 1200 mg single dose, compared with placebo): approximately 11.4%
- AUEC24 of plasma 24HC (plasma 24HC [4]; Day 1, single dose 200 mg): 1017 (27.5) h*ng/mL
- AUEC24 of plasma 24HC (plasma 24HC [4]; Day 1, single dose 600 mg): 1311 (30.2) h*ng/mL
- AUEC24 of plasma 24HC (plasma 24HC [4]; Day 1, single dose 1200 mg): 898.3 (16.6) h*ng/mL
- Emax (plasma 24HC [4]; single dose 200 mg): -17.7%
- Emax (plasma 24HC [4]; single dose 600 mg): -21.4%
- Emax (plasma 24HC [4]; single dose 1200 mg): -29.7%
- % change from Baseline in AUEC24 of plasma 24HC (plasma 24HC [4]; single dose 200 mg): −8.875%
- % change from Baseline in E24 of plasma 24HC (plasma 24HC [4]; single dose 200 mg): −20.29%
- AUECt of plasma 24HC (time 0 to last sampling time point) (plasma 24HC [4]; single dose 200 mg): 1918 (26.0) h*ng/mL
- E24 of plasma 24HC (observed effect at 24 hours) (plasma 24HC [4]; single dose 200 mg): 39.95 (25.4) ng/mL
- Emax of plasma 24HC (maximum drug-induced effect) (plasma 24HC [4]; single dose 200 mg): 35.25 (24.3) ng/mL
- Time to Emax of plasma 24HC (plasma 24HC [4]; single dose 200 mg): 48.00 (48.0-48.0) h
- % change from Baseline in AUEC24 of plasma 24HC (plasma 24HC [4]; single dose 600 mg): −8.482%
- % change from Baseline in E24 of plasma 24HC (plasma 24HC [4]; single dose 600 mg): −24.02%
- AUECt of plasma 24HC (time 0 to last sampling time point) (plasma 24HC [4]; single dose 600 mg): 2425 (31.2) h*ng/mL
- E24 of plasma 24HC (observed effect at 24 hours) (plasma 24HC [4]; single dose 600 mg): 48.47 (32.0) ng/mL
- Emax of plasma 24HC (maximum drug-induced effect) (plasma 24HC [4]; single dose 600 mg): 43.25 (35.3) ng/mL
- Time to Emax of plasma 24HC (plasma 24HC [4]; single dose 600 mg): 48.00 (24.0-48.0) h
- % change from Baseline in AUEC24 of plasma 24HC (plasma 24HC [4]; single dose 1200 mg): −11.36%
- % change from Baseline in E24 of plasma 24HC (plasma 24HC [4]; single dose 1200 mg): −22.65%
- AUECt of plasma 24HC (time 0 to last sampling time point) (plasma 24HC [4]; single dose 1200 mg): 1627 (18.7) h*ng/mL
- E24 of plasma 24HC (observed effect at 24 hours) (plasma 24HC [4]; single dose 1200 mg): 33.57 (19.8) ng/mL
- Emax of plasma 24HC (maximum drug-induced effect) (plasma 24HC [4]; single dose 1200 mg): 27.30 (24.4) ng/mL
- Time to Emax of plasma 24HC (plasma 24HC [4]; single dose 1200 mg): 48.00 (48.0-48.0) h
